Each structure is given as a SMILES string. Converted amounts (≈) assume the structure as drawn. A value given as a limit tells only on which side of the number the result lay.

From patent US5928910A, “Antifungal substances BE-49385 and process for their production” (Banyu Pharmaceutical Co., Ltd., priority 1995, dated 1999) come the findings set out here.

A short description of one data set: Solubility. In kind it is physicochemical.
For data set [1], the system named is Kluyveromyces lactis IFO 1267. As to the kind of experiment: MIC by agar dilution method, Kluyveromyces lactis IFO 1267. In kind it is cell-based. As to conditions: IFO1267, 72 h, 28° C., 3 days, read-out: MIC (minimum inhibitory concentration). On the procedure: (§1) The minimum inhibitory concentrations of antifungal substances BE-49385 against various fungi were measured. The measurement of MIC was carried out by an agar dilution method using a culture medium prepared by mixing 900 ml of an agar solution containing 2.5 g of sterilized dipotassium hydrogenphosphate and 15 g of agar, with a solution obtained by dissolving 6.7 g of a yeast nitrogen base (manufactured by Difico Co.) and 10 g of glucose in 100 ml of purified water, followed by sterilization by means of sterilizing filter. BE-49385 was dissolved in dimethylsulfoxide to a concentration of 10 mg/ml and further diluted with dimethylsulfoxide to obtain a twice diluted series, and the dimethylsulfoxide concentration in the agar plate was adjusted to be 1%. On the prepared agar plate, 5 μl of the test strain solution adjusted to a concentration of 10^6 cells per 1 ml, was dropped, followed by culturing at 28° C. for 3 days, whereupon the growth was evaluated.
(§2) The minimum inhibitory concentrations (MIC, unit: μ g/ml) of antifungal substance BE-49385A against various fungi, are shown in Table 1, and MICs of BE-49385 substances against Schizosaccharomyces pombe IAM4863 are shown in Table

The subject of data set [2] is Saccharomyces cerevisiae IFO 1267. As to the kind of experiment: MIC by agar dilution method, Saccharomyces cerevisiae IFO 1267. In kind it is cell-based. To be noted: IFO1267, 72 h, 28° C., 3 days, read-out: MIC (minimum inhibitory concentration). On the procedure: as §1, §2
Data set [3] has as its system Candida albicans IFO 1385. As to the kind of experiment: MIC by agar dilution method, Candida albicans IFO 1385. In kind it is cell-based. As to conditions: IFO1385, 72 h, 28° C., 3 days, read-out: MIC (minimum inhibitory concentration). On the procedure:
as §1, §2

The test system of data set [4] is Candida albicans IFO 1270. The experiment in a line: MIC by agar dilution method, Candida albicans IFO 1270. As to conditions: IFO1270, 72 h, 28° C., 3 days, read-out: MIC (minimum inhibitory concentration). It is filed as cell-based. On the procedure: as §1, §2
The subject of data set [5] is Penicillium chrysogenum IFO 6223. As to the kind of experiment: MIC by agar dilution method, Penicillium chrysogenum IFO 6223. In kind it is cell-based. To be noted: IFO6223, 72 h, 28° C., 3 days, read-out: MIC (minimum inhibitory concentration). On the procedure:
as §1, §2

Data set [6] has as its system Aspergillus niger IFO 31012. As to the kind of experiment: MIC by agar dilution method, Aspergillus niger IFO 31012. In kind it is cell-based. To be noted: IFO31012, 72 h, 28° C., 3 days, read-out: MIC (minimum inhibitory concentration). On the procedure: as §1, §2
Data set [7] deals with Schizosaccharomyces pombe IAM4863. As to the kind of experiment: MIC by agar dilution method, Schizosaccharomyces pombe IAM4863. In kind it is cell-based. As to conditions: 72 h, 28° C., 3 days, read-out: MIC (minimum inhibitory concentration). On the procedure:
as §1, §2

As for `C=C1C2CC3C(C(C)C)C(OC(=O)CC(C)(O)CC(C)CC)CC3(C)CC2C(C)=CCC2C(C)OC(=O)C(OC(C)=O)C12O` (stereo not drawn) [BE-49385A-Ac], in “Solubility”, the “Solubility in an organic solvent such as methanol or dimethylsulfoxide” value (“Solubility in an organic solvent such” for short) is reported as “Readily soluble” and the Solubility in water result is recorded as “hardly soluble”.

Consider `C=C1C2CC3C(C(C)C)C(OC(=O)CC(C)(O)CC(C)CC)CC3(C)CC2C(C)=CCC2C(C)OC(=O)C(O)C12O` (stereo not drawn) [BE-49385A], for which the MIC was 0.78 µg/mL (≈ 1.36 µM) in data set [1]; 3.13 µg/mL (≈ 5.45 µM) in data set [2]; 3.13 µg/mL (≈ 5.45 µM) in data set [3]; 0.78 µg/mL (≈ 1.36 µM) in data set [4]; 0.39 µg/mL (≈ 0.678 µM) in data set [5]; 0.78 µg/mL (≈ 1.36 µM) in data set [6]. Also, the MIC in data set [7] was less than 0.1 µg/mL. Besides, the “Solubility in an organic solvent such” value in “Solubility” was “Readily soluble”. Moreover, the Solubility in water entry in “Solubility” is reported as “hardly soluble”.

With `C=C1C2CC3C(C(C)C)C(OC(=O)C(O)CC(C)CC(C)CC)CC3(C)CC2C(C)=CCC2C(C)OC(=O)C(O)C12O` (stereo not drawn) [BE-49385B], the MIC in data set [7] was 0.39 µg/mL (≈ 0.662 µM). For the same compound, in “Solubility”, the “Solubility in an organic solvent such” value is “Readily soluble” and the Solubility in water result is listed as “hardly soluble”.

Take `C=C1C2CC3C(C(C)C)C(OC(=O)CC(C)CC(C)CC)CC3(C)CC2C(C)=CCC2C(C)OC(=O)C(O)C12O` (stereo not drawn) [BE-49385C]: the MIC in data set [7] was found to be 0.39 µg/mL (≈ 0.698 µM). Further, in the data set “Solubility”, the “Solubility in an organic solvent such” value was “Readily soluble” and the Solubility in water entry was “hardly soluble”.

As for `C=C1C2CC3C(C(C)C)C(OC(=O)C(O)c4ccccc4)CC3(C)CC2C(C)=CCC2C(C)OC(=O)C(O)C12O` (stereo not drawn) [BE-49385D], the MIC in data set [7] is 0.78 µg/mL (≈ 1.41 µM). Besides, in the data set “Solubility”, the “Solubility in an organic solvent such” value is on record as “Readily soluble” and the Solubility in water result is reported as “hardly soluble”.

For `C=C1C2CC3C(C(C)C)C(OC(=O)C(O)C(C)(O)CC(C)CC)CC3(C)CC2C(C)=CCC2C(C)OC(=O)C(O)C12O` (stereo not drawn) [BE-49385E], the MIC in data set [7] was 0.2 µg/mL (≈ 0.339 µM). In the data set “Solubility”, the “Solubility in an organic solvent such” value was “Readily soluble” and the Solubility in water result is “hardly soluble”.

Turning to `C=C1C2CC3C(C(C)C)C(O)CC3(C)CC2C(C)=CCC2C(C)OC(=O)C(O)C12O` (stereo not drawn) [BE-49385F], in “Solubility”, the “Solubility in an organic solvent such” value is recorded as “Readily soluble” and the Solubility in water entry is recorded as “hardly soluble”.

Turning to `C=C1C2CC3C(C(C)C)C(OC(=O)C(O)C(O)CCC(C)CC)CC3(C)CC2C(C)=CCC2C(C)OC(=O)C(O)C12O` (stereo not drawn) [BE-49385G], the MIC in data set [7] is 0.39 µg/mL (≈ 0.66 µM). In “Solubility”, the “Solubility in an organic solvent such” value was “Readily soluble” and the Solubility in water result is on record as “hardly soluble”.

With `C=C1C2CC3C(C(C)C)C(OC(=O)C(O)C(O)C(C)CC(C)CC)CC3(C)CC2C(C)=CCC2C(C)OC(=O)C(O)C12O` (stereo not drawn) [BE-49385H], in “Solubility”, the “Solubility in an organic solvent such” value was “Readily soluble” and the Solubility in water entry is listed as “hardly soluble”.
